According to publication PMC9376960, “Ruthenium(II)–Tris-pyrazolylmethane Complexes Inhibit Cancer Cell Growth by Disrupting Mitochondrial Calcium Homeostasis” (Journal of Medicinal Chemistry, 2022):
Marks after values point to notes of the source that are not given here.

Columns and labels:
HCT116 cells = assay: Confocal microscopy imaging of actin and tubulin; assay type: cell-based, human; details: 24 h at IC50
Method: HCT116 cells were seeded on coverslips precoated with 0.1% gelatin in six-well culture plates at a density of 1 × 10^5 cells/well. […] Following the treatment, the cells were washed with PBS, fixed with 4% p-formaldehyde, washed, permeabilized with 0.1% Triton X-100, and blocked. Samples for actin staining were blocked with 1.5% BSA for 1 h and then stained with Alexa Fluor 488-conjugated Phalloidin (Thermo Fisher Scientific, 1:50 dilution, 20 min). Samples for tubulin staining were blocked with 5% goat serum for 1 h and incubated with primary antibody (anti-α-tubulin, Abcam, 1:200 dilution, 1 h) and Alexa Fluor-conjugated secondary antibody (goat antirabbit, Abcam, 1:500 dilution, 1 h). Both groups of samples were mounted with ProLong Diamond Antifade Mountant with DAPI (Invitrogen). Cells were visualized on a confocal microscope Leica TCS SP8 SMD.

MCF-7 = assay: MTT antiproliferative assay; assay type: cell-based, human; details: 72 h, mean ± SD
Method: (§1) All of the cell lines were cultivated in DMEM medium (high glucose 4.5 g L^–1, PAA, Pasching, Austria) supplemented with gentamycin (50 μg mL^–1, Serva, Heidelberg, Germany) and 10% heat-inactivated fetal bovine serum (PAA). The medium for MRC5pd30 cells was further supplemented by 1% nonessential amino acids (Sigma-Aldrich, Prague, Czech Republic). All cells were cultured as adherent monolayers in a humidified incubator at 37 °C in a 5% CO2 atmosphere and subcultured twice a week with an appropriate plating density.
(§2) In vitro antiproliferative activity of Ru complexes was determined by the MTT or, alternatively, SRB assay as already described,[84] after 72 h of incubation of cells with various concentrations of the Ru complex. The reported IC50 values are an average of three independent experiments, each consisting of three replicates per concentration.

518A2 = assay: MTT antiproliferative assay; assay type: cell-based, human; details: 72 h, mean ± SD
Method: as §1, §2

HCT116 [1] = assay: MTT antiproliferative assay; assay type: cell-based, human; details: 72 h, mean ± SD
Method: as §1, §2

HeLa = assay: MTT antiproliferative assay; assay type: cell-based, human; details: 72 h, mean ± SD
Method: as §1, §2

HCT116 (3D) = assay: Cytotoxicity in 3D spheroids (colonospheres), Cell Titer-Glo 3D; assay type: cell-based, human; details: for effect on the morphology of 3D spheroids: 20 µM, 72 h, bright-field images; for IC50: Cell Titer-Glo, spheroids, 72 h of treatment
Method: A spontaneous spheroid formation was used to generate colonospheres derived from the HCT116 cell line. The HCT116 cells were seeded on 96-well ultralow attachment plates (1400 cells/well) and cultivated in a tumor sphere-forming medium (DMEM/F12, supplemented with B27 (Invitrogen), BSA, bFGF (10 ng mL^–1), and EGF (20 ng mL^–1)) for 4 days. After the incubation period, colonospheres were treated with Ru complexes for another 3 days. The viability of colonospheres was determined by the Cell Titer-Glo 3D cell viability assay (Promega) according to the manufacturer’s instructions. The reported IC50 values are the average of three independent experiments, each consisting of three replicates per concentration level. Bright-field images of the spheroids were taken as well to determine the effect on the morphology of the spheroids.

[2] = test system: mitochondria of HCT116 cells; assay: Ru content in isolated mitochondria (ICP-MS); assay type: cell-based, human; details: HCT116, 10 μM, 24 h
Method: The HCT116 cells were seeded at a density of 3 × 10^6 cells/10 mL Petri dish and incubated overnight. The cells were treated with Ru complexes (10 μM) for 24 h, harvested, and washed with ice-cold PBS, and mitochondrial fractions were extracted by the Mitochondrial Isolation Kit (MITOISO2, Sigma-Aldrich) according to the manufacturer’s instructions. The Ru content in each sample was evaluated by ICP-MS. The measurement was performed in triplicate.

RD = assay: MTT antiproliferative assay; assay type: cell-based, human; details: 72 h, mean ± SD
Method: as §1, with “density. In vitro antiproliferative activity of Ru complexes was determined by the MTT or, alternatively, SRB assay as already described,[84] after 72 h of incubation of cells with various concentrations of the Ru complex. The reported IC50 values are an average of three independent experiments, each consisting of three replicates per concentration.” for “density.”

HCT116 [3] = assay: SRB antiproliferative assay; assay type: cell-based, human; details: SRB test, 72 h; mean ± SD
Method: as §2

[4] = test system: cancer cell lines (MCF-7, HeLa, 518A2, HCT116, RD) vs noncancerous MRC-5pd30; assay: MTT panel: average IC50 of cancer cell lines and selectivity index; assay type: cell-based, human; details: for SI (selectivity index): IC50 for noncancerous MRC-5pd30 vs the average IC50 value of cancer cell lines; for IC50: average of IC50 values related to cancer cell lines
Method: as §2

[5] = Stability and chloride/water exchange in D2O (NMR); assay type: physicochemical; details: for Aquo species % in D2O after 48h: 48 h at 37 °C; for residual complex % in D2O: sum of chloro and aquo complexes; for Aquo species % in D2O at t0: t0 = after 2 h stirring in D2O
Method: The same samples prepared at point (a) were used in this experiment, apart from complex 1 that was dissolved in DMSO-d6/D2O 4:1 v/v solution (0.7 mL; [Ru] = approx. […]) containing Me2SO2 as the standard.[115] After ^1H and ^31P{^1H} NMR analyses described above at point (a) (time = t0), samples were heated at 37 °C for 48 h. After cooling to room temperature, ^1H and ^31P NMR spectra were recorded. The percentage of starting complex + related aquo complex was calculated by the relative integral (C^βH signal in the ^1H spectrum) with respect to Me2SO2 (c = 3.3 × 10^–3 mol·L^–1; δ/ppm = 3.14 in D2O; δ/ppm = 2.95 in DMSO-d6/D2O 4:1 v/v), see Table 2 and S1.

Substance | IC50 (MCF-7) [µM] | IC50 (HCT116 [1]) [µM] | IC50 (HeLa) [µM] | Ru in isolated mitochondria [2] [pg Ru/10^6 cells] | IC50 (HCT116 [3]) [µM] | residual complex % in DMSO-d6/D2O ([5]; DMSO-d6/D2O (4:1 v/v) mixture, after 48 h at 37 °C) | Aquo species % in D2O after 48h [5] [%] | residual complex % in D2O ([5]; after 48 h at 37 °C) [%] | Aquo species % in D2O at t0 [5] [%] | effect on structure, shape, and layout of tubulin and actin networks (HCT116 cells) | IC50 (518A2) [µM] | effect on the morphology of 3D spheroids (HCT116 (3D)) | fold more effective than cisplatin (HCT116 (3D); 3D spheroids HCT116) | IC50 (HCT116 (3D)) [µM] | IC50 (RD) [µM] | SI (selectivity index) [4] | IC50 [4] [µM]
[RuCl(κ^3-tpm)(PPh3)2]Cl [compound 1] | 2.4 ± 0.6 | 1.5 ± 0.1 | 4 ± 0.4 | 467 ± 66 | 0.45 ± 0.05 | 69 ^c % |  |  |  | did not significantly affect | 2.6 ± 0.4 | almost completely disintegrated | approximately 18 fold | 2.5 ± 0.6 | 2.2 ± 0.2 | 2.3 | 2.5 ± 0.3
[RuCl(κ^3-tpm)(PPh3)(CNCy)]Cl [compound 8] | 10 ± 2 | 8 ± 2 | 15 ± 1 | 70 ± 15 | 5.2 ± 0.5 |  | 90 | 92 | 33 | did not significantly affect | 10 ± 2 | heterogeneous morphology with several dissociated cell clumps |  | 12.1 ± 2.7 | 6.6 ± 0.7 | 2.0 | 9.9 ± 1.5
[RuCl(κ^3-tpm)(PPh3){CNCH2P(O)(OEt2)2}]Cl [compound 9] | 43 ± 7 | 35 ± 6 | 36 ± 2 |  | 29 ± 3 |  | 73 | 93 | 0 |  | 38 ± 7 |  |  |  | 24 ± 3 | 1.5 | 35.2 ± 5

Continued, in another order:

IC50 (MCF-7) [µM] | IC50 (HCT116 [1]) [µM] | IC50 (HeLa) [µM] | Ru in isolated mitochondria [2] [pg Ru/10^6 cells] | IC50 (HCT116 [3]) [µM] | residual complex % in DMSO-d6/D2O ([5]; DMSO-d6/D2O (4:1 v/v) mixture, after 48 h at 37 °C) | Aquo species % in D2O after 48h [5] [%] | residual complex % in D2O ([5]; after 48 h at 37 °C) [%] | Aquo species % in D2O at t0 [5] [%] | Substance | effect on structure, shape, and layout of tubulin and actin networks (HCT116 cells) | IC50 (518A2) [µM] | effect on the morphology of 3D spheroids (HCT116 (3D)) | fold more effective than cisplatin (HCT116 (3D); 3D spheroids HCT116) | IC50 (HCT116 (3D)) [µM] | IC50 (RD) [µM] | SI (selectivity index) [4] | IC50 [4] [µM]
38 ± 8 | 25 ± 1 | 91 ± 3 |  | 16 ± 2 |  | 93 | 100 | 75 | [RuCl(κ^3-tpm)(PPh3){NCHN(Me)(CH)2}]Cl [compound 3] |  | 33 ± 5 |  |  |  | 27 ± 4 | 2.0 | 42.8 ± 4.2
6 ± 1 | 6.7 ± 0.4 | 10 ± 2 | 127 ± 24 | 5.8 ± 0.6 |  | 83 | 100 | 57 | [RuCl(κ^3-tpm)(PPh3){P(OMe)3}]Cl [compound 7] | did not significantly affect | 6.8 ± 0.8 | heterogeneous morphology with several dissociated cell clumps |  | 12.2 ± 2.5 | 6 ± 1 | 3.4 | 7.1 ± 1
